# Peptide text beside a SMILES is read from it.
# How the values were obtained:
# Escherichia coli = tested on: Escherichia coli
# Protocol: (§1) The 5 designed and synthesized peptides of the invention, plus omiganan (peptide of the state of the art) were evaluated for their antimicrobial capacity in microdilution assays for determining the minimum inhibitory concentration (MIC). A first panel of 8 representative strains was analyzed in these assays, encompassing Gram positive and Gram negative bacteria. […] The lowest MIC values indicate a higher antimicrobial potency.
# (§2) Subsequently, an analysis of a panel of clinical isolates including strains with different resistance mechanisms against conventional antibiotics was carried out, all of which are of clinical relevance. […] In Table 3 the results for a panel of Gram negative bacteria are shown, and in Table 4 for a panel of […] bacteria. In these tables the detected gene/s responsible for the resistance against antibiotics for each strain, are included.
# (§3) Antimicrobial activity was analyzed by means of the determination of the MIC (minimum inhibitory concentration) by the microdilution technique. The technique was carried out in the standard fashion according to (CLSI M07-A9 Vol. 32 No 2. January 2012). The peptide concentration range used was from 0.5 μg/mL to 512 μg/mL in two-fold serial dilutions. The used medium was MH Difco broth supplemented with cations, at a final concentration of Ca^++20-25 mg/L and Mg^++10-12.5 mg/L. The working inoculum used corresponds to a 1/100 dilution of a bacterial suspension equivalent to 0.5 in the Mc Farland scale.
# Klebsiella pneumoniae = tested on: Klebsiella pneumoniae
# Protocol: as §1, §2, §3
# Staphylococcus cohnii = tested on: Staphylococcus cohnii
# Protocol: as §1, §2, §3
# Staphylococcus warneri = tested on: Staphylococcus warneri
# Protocol: as §1, §2, §3
# Pseudomonas aeruginosa = assay: MIC by broth microdilution; format: cell-based
# Protocol: as §1, §2, §3
# E. coli = format: cell-based
# Protocol: (§4) In vitro sensitivity assay of aerobically growing bacteria, using the disc diffusion method was performed according to the standards in the M2 document of the CLSI (Clinical and Laboratory Standards Institute: Performance Standards for Antimicrobial Disk Susceptibility Tests.) using the non-amidated peptides
# (§5) In brief, intermediate solutions (10×) of the antimicrobial non-amidated peptides were prepared by serial dilutions 1:2, 1:4 and 1:8 by two-fold dilutions. Then, one part of the solution of the antimicrobial peptide 10× was added to nine parts of melted bacteriological agar. The antibiotic solution was added for each dilution, in the melted agar and cooled to 45-50° C. in a water bath. Then, the agar-antibiotic mixture was placed in a Petri dish until a 3-4 mm depth was reached. The inoculum is prepared with a turbidity of 0.5 in the McFarland scale (approximately 1-2 10^8 CFU/ml). The final inoculum required for the agar dilution test is 10^4 colony forming units (CFU) per “spot” having 5-8 mm in diameter. The inoculated plates must be incubated upside down at 35° C. for a period of 16-20 hs. MIC was recorded as the value of the lower dilution completely inhibiting bacterial development, without considering the development of a single colony or a slight film caused by the inoculum deposit. The final point in these cases will correspond to the concentration at which there is more than 80% reduction in growth as compared with the control.
# K. pneumoniae = format: cell-based
# Protocol: as §4, §5
# P. aeruginosa = format: cell-based
# Protocol: as §4, §5
# S. aureus = format: cell-based
# Protocol: as §4, §5
# S. cohnii = format: cell-based
# Protocol: as §4, §5
# S. warnerii = format: cell-based
# Protocol: as §4, §5
smiles,measurement,setting,value
CC[C@H](C)[C@H](NC(=O)[C@H](CCCCN)NC(=O)[C@H](CCCNC(=N)N)NC(=O)[C@H](CC(N)=O)NC(=O)CNC(=O)[C@H](CCCNC(=N)N)NC(=O)[C@H](Cc1ccccc1)NC(=O)[C@@H](NC(=O)[C@H](CS)NC(=O)[C@H](Cc1c[nH]cn1)NC(=O)[C@H](CC(C)C)NC(=O)[C@@H]1CCCN1C(=O)[C@H](CCC(N)=O)NC(=O)[C@@H]1CCCN1C(=O)[C@@H](NC(=O)[C@H](CC(N)=O)NC(=O)[C@@H]1CCCN1C(=O)[C@H](CC(C)C)NC(=O)CNC(=O)[C@@H](NC(=O)CNC(=O)[C@H](CO)NC(=O)[C@H](CC(C)C)NC(=O)[C@H](CC(C)C)NC(=O)[C@H](CC(=O)O)NC(=O)[C@H](CS)NC(=O)[C@@H](NC(=O)[C@@H](N)[C@@H](C)O)[C@@H](C)O)C(C)C)C(C)C)C(C)C)C(=O)N[C@@H](CCCCN)C(=O)N[C@@H](Cc1c[nH]c2ccccc12)C(N)=O [peptide 4] (H-TTCDLLSGVGLPNVPQPLHCVFRGNRKIKW-NH2),MIC,Escherichia coli,>256 µg/mL
same,MIC,Klebsiella pneumoniae,>256 µg/mL
same,MIC,Staphylococcus cohnii,>256 µg/mL
same,MIC,Staphylococcus warneri,>256 µg/mL
same,MIC,Pseudomonas aeruginosa,>256 µg/mL
same,MIC in agar dilution,E. coli,>128 µg/mL
same,MIC in agar dilution,K. pneumoniae,>128 µg/mL
same,MIC in agar dilution,P. aeruginosa,>128 µg/mL
same,MIC in agar dilution,S. aureus,>128 µg/mL
same,MIC in agar dilution,S. cohnii,>128 µg/mL
same,MIC in agar dilution,S. warnerii,>128 µg/mL
